These are literature values, as cited in patent publication US10327463B2 (priority 2015, dated 2019).

Data set [1] concerns C. perfringens.
For data set [2], the system named is Listeria monocytogenes. The following applies: alone or with additional antimicrobials; turkey slurries with and without sodium nitrite.
For data set [3], the system named is Clostridium species. The following applies: cured products, processed meat formulations.
The subject of data set [4] is Listeria monocytogenes. The settings on record: maximum allowed level of 156 ppm, without adjunct antimicrobials.

Each structure is given as a SMILES string. Where a name gives a salt, the structure may show the parent alone.

On to `CC(=O)O` [acetic acid or its salt, acetic acid], for which the “inhibition of C. perfringens” value in data set [1] was “failed to inhibit C. perfringens”. Take `CC(=O)O.CC(=O)[O-].[Na+]` [sodium diacetate]: the “level effective in controlling Listeria monocytogenes” value in data set [2] is reported as 0.3-0.5%. For `O=NO` [sodium nitrite], the “level sufficient for the inhibition of Clostridium species” value in data set [3] is reported as “approx. 50 ppm”. Also, the “inhibition of Listeria monocytogenes” value in data set [4] is listed as “insufficient for the inhibition of Listeria monocytogenes”.
